biological target: C-C chemokine receptor type 5 (Homo sapiens, UniProt P51681)
Sequence (P51681 whole entry): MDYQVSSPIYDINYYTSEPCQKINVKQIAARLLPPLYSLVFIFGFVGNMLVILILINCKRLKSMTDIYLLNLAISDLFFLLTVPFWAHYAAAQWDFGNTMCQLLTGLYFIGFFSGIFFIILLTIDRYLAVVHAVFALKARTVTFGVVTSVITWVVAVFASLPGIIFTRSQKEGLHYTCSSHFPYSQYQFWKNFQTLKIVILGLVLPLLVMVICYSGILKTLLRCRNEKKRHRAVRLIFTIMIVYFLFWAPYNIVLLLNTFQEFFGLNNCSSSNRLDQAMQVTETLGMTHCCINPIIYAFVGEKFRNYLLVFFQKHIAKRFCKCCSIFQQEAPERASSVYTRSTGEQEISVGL

Row | EC50 [nM] | Structure (SMILES)
1 | 123 | CCOC(=O)c1ccc(NC(=O)Cn2nnc(-c3ccccc3)n2)cc1 [SMR000021419]
2 | 19.6 | CC(=O)Nc1ccc(S(=O)(=O)NCCc2csc(-c3cccnc3)n2)cc1
3 | 188 | CCOC(=O)c1ccc(NC(=O)COc2ccc(S(=O)(=O)N3CCCC3)cc2)cc1 [SMR000124597]
4 | 7.46 | CN(CC(=O)N1CCN(c2ccccn2)CC1)S(=O)(=O)c1ccc(Cl)cc1
